pEC50, pIC50: −log10 of the molar value. Read-outs that look alike come from different tables or passages of the source.
Columns and labels:
[1] = target: Cap-dependant Endonuclease (CEN) (RNP fraction, PB1-PB2-PA complex) (Influenza A virus (strain A/Wilson-Smith/1933 H1N1) (Influenza A virus (strain A/WS/1933 H1N1)), UniProt P15659); format: biochemical, influenza A/WSN/33 virus
influenza virus = test: microbe, parasite or virus in culture; format: cell-based; details: MDBK or MDCK cells, 3 days, WST-8
[2] = parent compounds (Reference examples), room temperature, 60 minutes
[3] = unidentified influenza virus, 72 h, read-out: CPE EC50, parent compounds (Reference examples)
[4] = parent compounds (Reference examples), read-out: CPE EC50

Row | SMILES | pEC50 (influenza virus; [3]) | also measured
1 | C#Cc1cccc2c1[C@H](N1CN([C@H](C)C(F)(F)F)C(=O)c3c(O)c(=O)ccn31)c1cccc(F)c1SC2 [compound 726] | 8.41 | pIC50 [1, 2]: 8.43
2 | C[C@@H](N1CN(C2c3ccccc3CSc3ccc(F)cc32)n2ccc(=O)c(O)c2C1=O)C(F)(F)F (stereo partly drawn) [Reference example 345] | 8.10 | –
3 | C[C@@H](N1CN([C@H]2c3cc(F)ccc3CSc3c(Cl)cccc32)n2ccc(=O)c(O)c2C1=O)C(F)(F)F [Reference example 658] | 7.72 | pIC50 [1, 2]: 7.28
4 | C[C@@H](N1CN([C@@H]2c3cccc(F)c3SCc3cccc(Br)c32)n2ccc(=O)c(O)c2C1=O)C(F)(F)F [compound 771] | 8.39 | pIC50 [1, 2]: 8.23
5 | C[C@@H](N1CN([C@@H]2c3ccccc3SCc3cccc(Br)c32)n2ccc(=O)c(O)c2C1=O)C(F)(F)F [Reference example 654] | 9.00 | pIC50 [1, 2]: 8.10
6 | CCc1cccc2c1[C@H](N1CN([C@H](C)C(F)(F)F)C(=O)c3c(O)c(=O)ccn31)c1ccccc1SC2 [compound 731] | 8.68 | pIC50 [1, 2]: 8.24
7 | CCc1cccc2c1[C@H](N1CN([C@H](C)C(F)(F)F)C(=O)c3c(O)c(=O)ccn31)c1cccc(F)c1SC2 [compound 724] | 8.20 | pIC50 [1, 2]: 8.29
8 | Cc1cccc2c1CSc1c(Cl)cccc1[C@H]2N1CN([C@H](C)C(F)(F)F)C(=O)c2c(O)c(=O)ccn21 [Reference example 612] | 7.89 | –
9 | COCCN1CC(C(c2ccccc2)c2ccccc2)n2cc(C(=O)O)c(=O)c(O)c2C1=O (stereo not drawn) [Example 2] | 6.53 | pIC50 [1, 2]: 7.32
10 | C[C@@H](N1CN([C@@H]2c3ccccc3SCc3c(Cl)cccc32)n2cc(CO)c(=O)c(O)c2C1=O)C(F)(F)F [compound 719] | 8.08 | pIC50 [1, 2]: 8.59
11 | Cc1cccc2c1SCc1c(F)cccc1[C@@H]2N1CN([C@H](C)C(F)(F)F)C(=O)c2c(O)c(=O)ccn21 [Reference example 623] | 8.52 | pIC50 [1, 2]: 7.68
12 | O=C1c2c(O)c(=O)ccn2N(C2c3ccccc3CSc3c(Cl)cccc32)CN1[C@@H]1C[C@@H]1F (stereo partly drawn) [Reference example 332] | 7.70 | –
13 | C[C@@H](N1CN([C@@H]2c3ccccc3SCc3cccc(Cl)c32)n2cc(B(O)O)c(=O)c(O)c2C1=O)C(F)(F)F [compound 707] | 8.52 | pIC50 [1, 2]: 7.40
14 | C[C@@H](N1CN([C@@H]2c3ccccc3SCc3cccc(Cl)c32)n2cc(CO)c(=O)c(O)c2C1=O)C(F)(F)F [compound 666] | – | pIC50 [1]: 8.47; pEC50 (influenza virus; [4]): 8.41
15 | Cc1cccc2c1CCc1ccccc1C2N1CN([C@H](C)C(F)(F)F)C(=O)c2c(O)c(=O)ccn21 (stereo partly drawn) [Reference example 631] | 7.39 | pIC50 [1, 2]: 7.12
16 | C[C@@H](N1CN([C@@H]2c3cccc(F)c3CSc3c(Cl)cccc32)n2ccc(=O)c(O)c2C1=O)C(F)(F)F [Reference example 597] | 7.31 | pIC50 [1]: 6.47
17 | CC(=O)OCCN1CN(C2c3ccccc3CSc3c(Cl)cccc32)n2ccc(=O)c(O)c2C1=O (stereo not drawn) [Reference example 359] | 7.10 | –
18 | O=C(NCCN1CN(C(c2ccccc2)c2ccccc2)n2ccc(=O)c(O)c2C1=O)c1ccccc1 [Example 150] | 6.26 | –
19 | C[C@@H](N1CN([C@@H]2c3ccccc3SCc3c(Cl)cccc32)n2ccc(=O)c(O)c2C1=O)C(F)(F)F [Reference example 417] | 8.52 | –
20 | CCOC(=O)CCN1CN(C(c2ccccc2)c2ccccc2)n2ccc(=O)c(O)c2C1=O [Example 128] | 6.38 | –
21 | C[C@@H](N1CN([C@H]2c3cccc(F)c3CSc3c(F)cccc32)n2ccc(=O)c(O)c2C1=O)C(F)(F)F [Reference example 469] | 8.40 | –

Row | SMILES | pEC50 (influenza virus; [3]) | also measured
22 | C[C@@H](N1CN([C@@H]2c3ccccc3CSc3ccccc32)n2ccc(=O)c(O)c2C1=O)C(F)(F)F [Reference example 414] | – | pEC50 (influenza virus; [4]): 6.88
23 | C[C@@H](N1CN([C@H]2c3cc(Cl)ccc3CSc3ccccc32)n2ccc(=O)c(O)c2C1=O)C(F)(F)F [Reference example 443] | 8.40 | –
24 | COCCN1CN(C2c3ccccc3COc3c(Cl)cccc32)n2ccc(=O)c(O)c2C1=O (stereo not drawn) [Reference example 396] | 7.22 | –
25 | C[C@@H](N1CN([C@H]2c3ccccc3CCc3c(Cl)cccc32)n2ccc(=O)c(O)c2C1=O)C(F)(F)F [Reference example 639] | 7.77 | –
26 | C[C@@H](N1CN([C@H]2c3cccc(C(F)(F)F)c3CSc3c(F)cccc32)n2ccc(=O)c(O)c2C1=O)C(F)(F)F [Reference example 660] | 7.96 | –
27 | CC(C)C1N(CCO)C(=O)c2c(O)c(=O)ccn2N1C1c2ccccc2CCc2ccccc21 (stereo not drawn) [Reference example 553] | 7.52 | –
28 | C[C@@H](N1CN([C@@H]2c3ccccc3SCc3c(Br)cccc32)n2ccc(=O)c(O)c2C1=O)C(F)(F)F [Reference example 463] | 8.30 | –
29 | CN1CN(C2c3ccccc3CSc3cc(Cl)ccc32)n2ccc(=O)c(O)c2C1=O (stereo not drawn) [Reference example 348] | 7.10 | –
30 | COCCN1C[C@H](C(c2ccccc2)c2ccccc2)n2cc(N)c(=O)c(O)c2C1=O [Example 56] | 5.41 | –
31 | CC(C)N1CN(C2c3ccccc3CSc3c(Cl)cccc32)n2ccc(=O)c(O)c2C1=O (stereo not drawn) [Reference example 326] | 8.30 | –
32 | C[C@@H](N1CN([C@@H]2c3ccccc3SCc3cccc(F)c32)n2ccc(=O)c(O)c2C1=O)C(F)(F)F [Reference example 456] | 8.40 | –
33 | COCCN1C[C@H](C(c2ccccc2)c2ccccc2)n2cc(CO)c(=O)c(O)c2C1=O [Example 48] | 4.96 | –
34 | C[C@@H](N1CN([C@H]2c3ccccc3CSc3c(F)cccc32)n2ccc(=O)c(O)c2C1=O)C(F)(F)F [Reference example 444] | 8.52 | –
35 | Cc1nnc(CN2CN(C3c4ccccc4CCc4ccccc43)n3ccc(=O)c(O)c3C2=O)o1 [Reference example 256] | 6.40 | –
36 | CC(C)N1CN(C2c3ccccc3COc3c(F)cccc32)n2ccc(=O)c(O)c2C1=O (stereo not drawn) [Reference example 403] | 7.15 | –
37 | COCCN1CN(Cc2ccccc2-c2ccccc2)n2ccc(=O)c(O)c2C1=O [Example 99] | 5.70 | –
38 | C[C@H](CO)N1CN(C2c3ccccc3CSc3ccccc32)n2ccc(=O)c(O)c2C1=O (stereo partly drawn) [Reference example 373] | 7.30 | –
39 | C[C@H](N1CN([C@H]2c3ccc(F)cc3CSc3ccccc32)n2ccc(=O)c(O)c2C1=O)C(F)(F)F [Reference example 460] | 8.05 | –
40 | C[C@@H](N1CN([C@H]2c3cc(F)ccc3CSc3ccccc32)n2ccc(=O)c(O)c2C1=O)C(F)(F)F [Reference example 441] | 8.30 | –
41 | CCN(CC)CCC1N(C(C)C)C(=O)c2c(O)c(=O)ccn2N1C1c2ccccc2CCc2ccccc21 (stereo not drawn) [Reference example 538] | 7.52 | –
42 | C[C@@H](N1CN(C2c3ccccc3CSc3cc(F)ccc32)n2ccc(=O)c(O)c2C1=O)C(F)(F)F (stereo partly drawn) [Reference example 344] | 8.05 | –

Row | SMILES | pEC50 (influenza virus; [3]) | also measured
43 | COCC(COC)N1CN(C2c3ccccc3CCc3ccccc32)n2ccc(=O)c(O)c2C1=O [Reference example 272] | 7.52 | –
44 | C[C@@H](N1CN([C@H]2c3ccc(F)cc3CSc3ccccc32)n2ccc(=O)c(O)c2C1=O)C(F)(F)F [Reference example 454] | 8.40 | –
45 | C[C@@H](N1CN([C@H]2c3ccccc3CSc3c(C#N)cccc32)n2ccc(=O)c(O)c2C1=O)C(F)(F)F [Reference example 618] | 7.74 | –
46 | O=C1c2c(O)c(=O)ccn2N([C@H]2c3ccccc3CSc3c(F)cccc32)CN1[C@H](CO)C(F)(F)F [Reference example 611] | 7.37 | –
47 | O=C1c2c(O)c(=O)ccn2N(C2c3ccccc3CCc3ccccc32)CN1Cc1ncns1 [Reference example 271] | 6.99 | –
48 | Cc1cccc2c1SCc1ccccc1C2N1CN(C(C)C)C(=O)c2c(O)c(=O)ccn21 (stereo not drawn) [Reference example 356] | 7.70 | –
49 | COCCN1CN(C(c2ccccc2)c2ccccc2)n2cc(C(=O)O)c(=O)c(O)c2C1=O [Example 94] | 5.83 | –
50 | COCCN1C[C@H](C(c2ccccc2)c2ccccc2)n2cc(Br)c(=O)c(O)c2C1=O [Example 63] | 5.70 | –
51 | COCCN1CN(C2c3ccccc3CSc3c(F)cccc32)n2ccc(=O)c(O)c2C1=O (stereo not drawn) [Reference example 336] | 7.15 | –
52 | O=C(O)c1cn2c(c(O)c1=O)C(=O)N1CCCO[C@H]1[C@@H]2C(c1ccccc1)c1ccccc1 [Example 175] | 6.99 | –
53 | C[C@@H](N1CN([C@H]2c3ccccc3CSc3ccc(F)cc32)n2ccc(=O)c(O)c2C1=O)C(F)(F)F [Reference example 448] | 8.10 | –
54 | COCC(COC)N1CN(C2c3ccccc3CSc3c(F)cccc32)n2ccc(=O)c(O)c2C1=O (stereo not drawn) [Reference example 339] | 7.40 | –
55 | O=C1c2c(O)c(=O)ccn2N(C2c3ccccc3CSc3ccccc32)CN1C1CCC(F)(F)CC1 (stereo not drawn) [Reference example 313] | 7.30 | –
56 | CC(=O)N(C)CC1N(C(C)C)C(=O)c2c(O)c(=O)ccn2N1C1c2ccccc2CCc2ccccc21 (stereo not drawn) [Reference example 525] | 7.05 | –
57 | CC(C)N1CN(C2c3ccccc3CSc3cc(F)ccc32)n2ccc(=O)c(O)c2C1=O (stereo not drawn) [Reference example 352] | 7.70 | –
58 | COCCN1C[C@H](C(c2ccccc2)c2ccccc2)n2cc(OC)c(=O)c(O)c2C1=O [Example 62] | 5.77 | –
59 | CN1C(=O)c2c(O)c(=O)c(C(=O)O)cn2C[C@H]1C(c1ccccc1)c1ccccc1 [Example 43] | 5.85 | –
60 | C[C@@H](N1CN(C(c2ccccc2)c2ccccc2Cl)n2ccc(=O)c(O)c2C1=O)C(F)(F)F (stereo partly drawn) [Reference example 243] | 7.70 | –
61 | CN(CCN1CN(C(c2ccccc2)c2ccccc2)n2ccc(=O)c(O)c2C1=O)S(=O)(=O)c1ccccc1 [Example 138] | 7.00 | –
62 | C[C@@H](N1CN([C@H]2c3ccc(F)cc3CSc3c(F)cccc32)n2ccc(=O)c(O)c2C1=O)C(F)(F)F [Reference example 470] | 8.52 | –

Source: patent US10202379B2, “Substituted polycyclic carbamoyl pyridone derivative prodrug” (priority 2010, dated 2019)
